Experimental findings from PubChem BioAssay (NCI) are described below.

The TGI is the concentration at which net growth stops. A low value points to greater sensitivity of the cells. The GI50 is the concentration that inhibits growth by half.

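Following 48 hours of exposure in 96-well plates, responses at five concentrations were used to interpolate endpoints linearly. GI50: concentration for 50% inhibition of growth. TGI: total growth inhibition.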

Among the test systems are HOP-92 NSCLC; OVCAR-3 ovarian; PC-3 prostate; SNB-75 CNS; MCF7 breast; BT-549 breast; OVCAR-5 ovarian; SNB-19 CNS; A549 NSCLC; SR leukemia.
What all share (assay): DTP human tumour cell line panel, 48 h

For `O=C(O)c1cccc(/C=C/c2ccccc2)c1`, the TGI in the test on HOP-92 NSCLC, in the test on OVCAR-3 ovarian, in the test on PC-3 prostate, in the test with SNB-75 CNS, with MCF7 breast and with BT-549 breast was above 100 µM in each case. Moreover, the total growth inhibition concentration (TGI) in the test with OVCAR-5 ovarian, with SNB-19 CNS and in the test on A549 NSCLC was above 100 µM each time.
Turning to `CN1c2ccccc2S(=O)(=O)n2c(CCc3ccccc3)nnc21`, the TGI was 98.7 µM in the test with HOP-92 NSCLC; above 100 µM with OVCAR-3 ovarian; above 100 µM in the test with PC-3 prostate; above 100 µM in the test on MCF7 breast; above 100 µM with BT-549 breast; above 100 µM with OVCAR-5 ovarian. Further, the TGI in the test with SNB-19 CNS and in the test with A549 NSCLC was above 100 µM in each case.
`Cc1ccc2sc3ccc(N)cc3c(=O)c2c1`: the TGI is 98.3 µM in the test on HOP-92 NSCLC; above 100 µM with OVCAR-3 ovarian; above 100 µM in the test with PC-3 prostate; above 100 µM in the test with SR leukemia; above 100 µM with MCF7 breast; above 100 µM in the test with BT-549 breast. In addition, the TGI with OVCAR-5 ovarian, in the test on SNB-19 CNS and in the test on A549 NSCLC was above 100 µM each time.
Regarding `C/C=C(/C)c1cnc(CC(C)C)c(=O)[nH]1`, the TGI in the test on HOP-92 NSCLC, with OVCAR-3 ovarian, with PC-3 prostate, in the test on SNB-75 CNS, in the test on SR leukemia and in the test with BT-549 breast was above 100 µM each time. Besides, the TGI in the test on OVCAR-5 ovarian, in the test with SNB-19 CNS and in the test with A549 NSCLC was above 100 µM in each case.
Take `COc1nc(C)cc2c(=O)n(-c3ccccc3)n(CC(O)CN3CCN(c4ccc(Cl)cc4)CC3)c(=O)c12` (stereo not given): the GI50 with HOP-92 NSCLC is 7.08 µM; in the test with OVCAR-3 ovarian, 34.3 µM; in the test with PC-3 prostate, 25.9 µM; in the test with SNB-75 CNS, 10.1 µM; in the test with SR leukemia, above 50 µM; with MCF7 breast, 46.1 µM. For the same compound, the GI50 in the test with OVCAR-5 ovarian is above 50 µM; in the test on SNB-19 CNS, 17.5 µM; in the test on A549 NSCLC, above 50 µM. Besides, the TGI with HOP-92 NSCLC was 18.5 µM; in the test with OVCAR-3 ovarian, above 50 µM; with PC-3 prostate, above 50 µM; in the test with SNB-75 CNS, 27.8 µM; in the test with SR leukemia it was above 50 µM; with MCF7 breast, above 50 µM. Also, the TGI in the test with OVCAR-5 ovarian, in the test on SNB-19 CNS and in the test on A549 NSCLC was above 50 µM each time.
Take `CCCCN(CC)c1ncnc2ccc(Br)cc12`: the GI50 was 9.44 µM in the test with HOP-92 NSCLC; 15.8 µM in the test on OVCAR-3 ovarian; 18.9 µM in the test on PC-3 prostate; 8.42 µM with SR leukemia; 24.6 µM in the test on MCF7 breast; 20.5 µM in the test with OVCAR-5 ovarian. In addition, the GI50 in the test on SNB-19 CNS is 35.2 µM; in the test with A549 NSCLC, 13.9 µM. Besides, the TGI with HOP-92 NSCLC was found to be 33.8 µM; with OVCAR-3 ovarian it was 32.5 µM; with PC-3 prostate, 49.6 µM; in the test on SR leukemia, 34.2 µM; in the test on MCF7 breast, 75.2 µM; in the test on OVCAR-5 ovarian, 49.8 µM. In addition, the TGI is above 100 µM in the test with SNB-19 CNS and 45.6 µM in the test with A549 NSCLC.
As for `COc1cc2c3c(ncc2c(OC)c1OC)-c1cc2c(cc1C3)OCO2`, the GI50 in the test on HOP-92 NSCLC was 61.1 µM; in the test with PC-3 prostate, above 100 µM; in the test with SNB-75 CNS it was above 100 µM; in the test with SR leukemia it was 0.25 µM; in the test with MCF7 breast, 15.6 µM; in the test with OVCAR-5 ovarian, 58.5 µM. Also, the GI50 was 26.1 µM with SNB-19 CNS and 82.9 µM in the test with A549 NSCLC. For the same compound, the TGI with HOP-92 NSCLC is above 100 µM; in the test on PC-3 prostate, above 100 µM; with SNB-75 CNS, above 100 µM; in the test on SR leukemia, 17.6 µM; with MCF7 breast, 59 µM; with OVCAR-5 ovarian, above 100 µM. In addition, the total growth inhibition concentration (TGI) with SNB-19 CNS is 55.6 µM; in the test with A549 NSCLC, above 100 µM.
`CC(C)(C)n1cc(-c2ccnc(NCCCNS(=O)(=O)c3ccc(Br)cc3)c2)c(-c2cccc(O)c2)n1`: the GI50 with HOP-92 NSCLC is 1.56 µM; in the test with OVCAR-3 ovarian, 2.15 µM; in the test with PC-3 prostate, 1.6 µM; in the test with SNB-75 CNS, 1.76 µM; in the test on MCF7 breast it was 1.88 µM; with BT-549 breast it was 1.5 µM. Also, the GI50 in the test on OVCAR-5 ovarian was 1.87 µM; with SNB-19 CNS, 2.11 µM; in the test on A549 NSCLC, 2.11 µM. Besides, the TGI with HOP-92 NSCLC worked out at 3.43 µM; in the test with OVCAR-3 ovarian, 4.15 µM; with PC-3 prostate it was 4.08 µM; in the test on SNB-75 CNS it was 4.11 µM; with MCF7 breast, 3.98 µM; with BT-549 breast, 2.98 µM. Besides, the total growth inhibition concentration (TGI) in the test on OVCAR-5 ovarian is 3.5 µM; in the test with SNB-19 CNS, 4.37 µM; in the test with A549 NSCLC, 5.39 µM.
For `COC(=O)[C@]1(C)CCC[C@@]2(C)[C@@H]3C[C@@H]4[C@H]5C[C@@]3(CC[C@@H]21)C[C@@]45C`, the TGI in the test on HOP-92 NSCLC worked out at 29.4 µM; in the test on OVCAR-3 ovarian, 32.7 µM; in the test with PC-3 prostate, 29.3 µM; with SNB-75 CNS it was 31.5 µM; in the test with MCF7 breast it was 30.3 µM; with BT-549 breast, 30.2 µM. For the same compound, the TGI turned out to be 34.2 µM in the test with OVCAR-5 ovarian, 26.9 µM in the test on SNB-19 CNS and 28 µM with A549 NSCLC.
In the case of `CCN(CC)CCOc1c(OC)c(Br)cc2c(C)c(C(=O)OC)oc12`, the GI50 was 0.982 µM in the test on OVCAR-3 ovarian; 0.368 µM with PC-3 prostate; 0.542 µM with SR leukemia; 1.63 µM in the test with MCF7 breast; 1.61 µM in the test with BT-549 breast; 3.14 µM in the test on OVCAR-5 ovarian. Also, the GI50 in the test with SNB-19 CNS is 2.31 µM; in the test on A549 NSCLC, 10 µM. Besides, the TGI in the test with OVCAR-3 ovarian is 2.28 µM; in the test on PC-3 prostate, 1.03 µM; in the test with SR leukemia, 1.31 µM; in the test on MCF7 breast it was 5.74 µM; with BT-549 breast, 5.62 µM; in the test with OVCAR-5 ovarian, 9.29 µM. The TGI in the test on SNB-19 CNS came out at 10.7 µM; in the test on A549 NSCLC, 20.2 µM.
As for `COC(=O)c1ccc(CN2C(=O)C(Cl)=C(Nc3ccc(OC)c(Cl)c3)C2=O)cc1`, the GI50 in the test on HOP-92 NSCLC was above 50 µM; with OVCAR-3 ovarian it was 21.6 µM; in the test with PC-3 prostate it was 44.3 µM; in the test on SR leukemia, 4.08 µM; in the test with MCF7 breast, 12.6 µM; in the test on BT-549 breast it was 11.3 µM. Moreover, the results for the GI50 in the test on OVCAR-5 ovarian, in the test on SNB-19 CNS and with A549 NSCLC were 17.8 µM, 5.93 µM and 26.2 µM, respectively. The TGI in the test on HOP-92 NSCLC was above 50 µM; with OVCAR-3 ovarian, above 50 µM; with PC-3 prostate, above 50 µM; in the test on SR leukemia it was 36.9 µM; with MCF7 breast it was above 50 µM; with BT-549 breast it was 26.7 µM. In addition, the TGI was 44.1 µM with OVCAR-5 ovarian, 22.3 µM in the test on SNB-19 CNS and above 50 µM in the test with A549 NSCLC.
Consider `C[C@]12CC[C@H]3[C@@H](CC[C@]4(O)C[C@@H](O)CC[C@]34CO)[C@@]1(O)CC[C@@H]2C1=CC(=O)OC1`, for which the TGI was 18.9 µM in the test with HOP-92 NSCLC; 3.21 µM with OVCAR-3 ovarian; 10.5 µM with PC-3 prostate; 34.3 µM in the test with SNB-75 CNS; above 100 µM with SR leukemia; 3.68 µM in the test with BT-549 breast. The TGI in the test on OVCAR-5 ovarian was found to be 10.5 µM; with SNB-19 CNS it was 23.6 µM; in the test with A549 NSCLC it was 1.74 µM.
For the compound `COc1cc(/C=C2\CC3C4CC=C5C[C@@H](O)CC[C@]5(C)C4CC[C@]3(C)C2=O)ccc1OCCCn1ccnc1` (stereo not given in full), the GI50 was 14.2 µM with HOP-92 NSCLC; 19.1 µM in the test with OVCAR-3 ovarian; above 100 µM in the test with PC-3 prostate; 24.1 µM in the test on SR leukemia; 18.8 µM in the test with MCF7 breast; 16.5 µM with BT-549 breast. The GI50 in the test on OVCAR-5 ovarian was 20.2 µM; with SNB-19 CNS it was 38.8 µM; with A549 NSCLC it was 17.1 µM. Moreover, the TGI was 32.6 µM in the test with HOP-92 NSCLC; 39.4 µM with OVCAR-3 ovarian; above 100 µM in the test with PC-3 prostate; 41.9 µM in the test with SR leukemia; 37.7 µM with MCF7 breast; 44.3 µM in the test with BT-549 breast. Moreover, the TGI is 41.9 µM with OVCAR-5 ovarian, above 100 µM in the test on SNB-19 CNS and 56.4 µM in the test with A549 NSCLC.
Regarding `Clc1ccc2c(c1)[nH]c1c2nc2sccn21`, the TGI with HOP-92 NSCLC, with OVCAR-3 ovarian, in the test on SNB-75 CNS, in the test on SR leukemia, in the test with OVCAR-5 ovarian and in the test with SNB-19 CNS was above 100 µM in each case. In the test on A549 NSCLC, the TGI was above 100 µM.
Take `CC[C@H](Nc1nc(N)nc(C2CC2)c1C#N)c1nc2cccc(NCc3ccc(C(=O)NO)cc3)c2c(=O)n1-c1ccccc1`: the GI50 in the test on HOP-92 NSCLC is 1.73 µM; with OVCAR-3 ovarian it was 1.73 µM; with PC-3 prostate, 2.11 µM; in the test with SNB-75 CNS, 1.57 µM; with MCF7 breast it was 2.06 µM; with BT-549 breast, 2.5 µM. For the same compound, the GI50 in the test with OVCAR-5 ovarian is 1.92 µM; in the test on SNB-19 CNS it was 2.18 µM; with A549 NSCLC, 1.93 µM. Besides, the TGI in the test with HOP-92 NSCLC worked out at 4.59 µM; with OVCAR-3 ovarian, 4.55 µM; in the test on PC-3 prostate, 14.6 µM; with SNB-75 CNS, 5.43 µM; with MCF7 breast it was 8.28 µM; in the test with BT-549 breast, 7.84 µM. Besides, the TGI with OVCAR-5 ovarian amounted to 5.08 µM; with SNB-19 CNS, 6.94 µM; in the test on A549 NSCLC, 4.52 µM.
On to `ClCc1ccc(C2OCCO2)cc1`, for which the TGI was 38.2 µM in the test on HOP-92 NSCLC; 49.2 µM in the test on OVCAR-3 ovarian; 52.5 µM in the test on SNB-75 CNS; above 79.7 µM in the test with SR leukemia; above 63.9 µM in the test with OVCAR-5 ovarian; above 59 µM with SNB-19 CNS. This compound came in with a TGI in the test with A549 NSCLC above 80.7 µM.
